# Assay results reported in patent publication US5294603A, “Pharmaceutical compositions containing didemnins” (The Board of Trustees of The University of Illinois, priority 1992, dated 1994).
# Entries after “also recorded” stand apart in the source; their conditions may differ. Like-named read-outs stand apart in the source and are kept apart here. Numbered stars: 1 amine (or outer) side, 2 acyl side, 3 side chain; on linkers, the order of the positions; unused ones are H or OH. Bridge positions count the residues as written; N and C are the ends. Square brackets hold non-standard residues; d marks the D form. Peptide text beside a SMILES is read from it. * marks the point of attachment. X14 = CC[C@H](C)[C@@H](N[*:1])[C@@H](O)CC(=O)O[C@@H](C(C)C)[C@@H](O)[C@H](C)C(=O)[*:2]; X4 = CC[C@H](C)[C@@H](N[*:1])[C@@H](O)CC(=O)O[C@@H](C(=O)[C@H](C)C(=O)[*:2])C(C)C; X1 = CC[C@H](C)[C@@H](N[*:1])[C@@H](O)CC(=O)O[C@H](C(=O)[C@H](C)C(=O)[*:2])C(C)C; NMeY = CN[C@@H](Cc1ccc(O)cc1)C(=O)O; dNMeL = CN[C@H](CC(C)C)C(=O)O; Isobutyryl = CC(C)C(=O)*; Pyruvoyl = CC(=O)C(=O)*
# Legend:
# L1210 = L1210 cytotoxicity, inhibition at fixed doses (Table 10); type: cell-based, murine; conditions: tested 4/18/1991
# [1] = tested on: Nb2 cells, rat T-cell node lymphoma; assay: Competitive binding with [3H]didemnin B to Nb2 cells; conditions: 3 h at 37° C.
# Experimental: The immunosuppressive assay was performed by measuring competitive binding of tested compounds with [^3 H]didemnin B to Nb2 cells, rat T-cell node lymphoma. See, Russell, D. H., et al., J. Immunology, 1987, 138, 276-284.
# ^a Competing didemnins incubated with approximately 25 ng of [^3
# [2] = tested on: DNA synthesis in Nb2 node lymphoma cells; assay: Inhibition of ongoing DNA synthesis in prolactin-stimulated Nb2 cells; type: cell-based, rat; conditions: Nb2 cells stimulated with prolactin for 24 h
# Experimental: (§1) Also inhibitions of protein and DNA synthesis of several compounds were measured using Nb2 node lymphoma cells which were stimulated by a treatment of cells with prolactin. (ibid.)
# (§2) ^a Nb2 cells were stimulated with prolactin for 24 h, then exposed to
# (§3) ^b 50% Inhibitory concentration, calculated with linear regression
# [3] = tested on: Protein synthesis in Nb2 node lymphoma cells; assay: Inhibition of ongoing protein synthesis in prolactin-stimulated Nb2 cells; type: cell-based, rat; conditions: Nb2 cells stimulated with prolactin for 24 h
# Experimental: as §1, §2, §3
# [4] = tested on: L1210 murine leukemia cells; conditions: Table 9
# Visna virus (VIV) = type: cell-based
# [5] = earlier work of Gloer; cited from earlier work
# [6] = earlier work, Rinehart et al. 1988; cited from earlier work
# VSV = type: cell-based, vesicular stomatitis virus
# HSV-1 = type: cell-based, Herpes simplex virus Type I
# [7] = tested on: BHK = Baby hamster kidney cells
# P388 murine lymphoma = assay: In vivo antitumor activity, P388; design: species or system mice; conditions: for T/C (treated/control): significant >125%
# Experimental: (§4) Compound 106 was prepared semisynthetically for in vivo antitumor testing in mice.
# (§5) ^b Schedule 1-9 days i. p.
# ^d P388 murine lymphoma. Median survival of control mice, 10.0 days.
# B16 melanoma = assay: In vivo antitumor activity, B16; design: species or system mice; conditions: for T/C (treated/control): significant >125%
# Experimental: as §4, §5
# ^e B16 melanoma. Median survival of control mice, 17.0 days.
# Lewis lung carcinoma = assay: In vivo antitumor activity, Lewis lung; design: species or system mice
# Experimental: as §4, §5
# ^f Lewis lung carcinoma, median tumor volume of control mice 1372
structure (smiles),measurement,setting,value
"CC[C@H](C)[C@@H](NC(=O)[C@@H](NC(=O)[C@@H](CC(C)C)NC)[C@@H](C)O)[C@@H](O)CC(=O)O[C@H](C(=O)[C@H](C)C(=O)N[C@@H](CC(C)C)C(=O)N1CCC[C@H]1C(=O)N(C)[C@@H](Cc1ccc(OC)cc1)C(=O)O)C(C)C [Acyclodidemnin A (16), Acyclodidemnin A] (H-[dNMeL]T[X1]LP[NMeY](Me)-OH)",Inhibition (%),L1210; dose 25 ng/mL,25%
same,Inhibition (%),L1210; dose 250 ng/mL,99%
same,Inhibition of [3H]didemnin B binding (%),[1]; 0.001 μg/mL,0%
same,Inhibition of [3H]didemnin B binding (%),[1]; 0.01 μg/mL,7%
same,Inhibition of [3H]didemnin B binding (%),[1]; 0.1 μg/mL,6%
same,Inhibition of [3H]didemnin B binding (%),[1]; 1 μg/mL,8%
same,IC50 DNA,[2],inactive (1 g)
same,IC50 Protein,[3],inactive (1 g)
same,CV-1,CV-1 monkey kidney cells,0
same,Cytotoxicity L1210 IC50,[4],30 ng/mL
"CC[C@H](C)[C@@H]1NC(=O)[C@@H](NC(=O)[C@H](CC(C)C)N(C)C(C)=O)[C@H](C)OC(=O)[C@H](Cc2ccc(OC)cc2)N(C)C(=O)[C@@H]2CCCN2C(=O)[C@H](CC(C)C)NC(=O)[C@@H](C)C(=O)[C@H](C(C)C)OC(=O)C[C@@H]1OC(C)=O [Diacetyldidemnin A (32), N,O-Diacetyldidemnin A]",VIV Protection,"Visna virus (VIV); Table 9, 0.1 μg/mL",< 0%
same,Cytotoxicity L1210 IC50,[4],15 ng/mL
same,cytotoxicity compared with Compound 1,[5],weaker cytotoxicity than Compound 1
same,antiviral activity (in vitro),[6],improvement of the antiviral activity
"CC[C@H](C)[C@H]1NC(=O)[C@@H](NC(=O)[C@@H](CC(C)C)N(C)C(=O)[C@@H]2CCCN2C(=O)[C@H](C)O)[C@@H](C)OC(=O)[C@H](Cc2ccc(O)cc2)NC(=O)[C@@H]2CCCN2C(=O)[C@H](CC(C)C)NC(=O)[C@@H](C)C(=O)[C@H](C(C)C)OC(=O)C[C@@H]1O [Didemnin N (13), Didemnin N]",Inhibition of [3H]didemnin B binding (%),[1]; 0.001 μg/mL,3%
same,Inhibition of [3H]didemnin B binding (%),[1]; 0.01 μg/mL,6%
same,Inhibition of [3H]didemnin B binding (%),[1]; 0.1 μg/mL,4%
same,Inhibition of [3H]didemnin B binding (%),[1]; 1 μg/mL,10%
same,IC50 DNA,[2],"200,000 ng/mL"
same,CV-1,CV-1 monkey kidney cells,0
same,Cytotoxicity L1210 IC50,[4],30 ng/mL
"CC[C@H](C)[C@H]1NC(=O)[C@@H](NC(=O)[C@@H](CC(C)C)NC)[C@@H](C)OC(=O)[C@H](Cc2ccc(OC)cc2)N(C)C(=O)[C@@H]2CCCN2C(=O)[C@H](CC(C)C)NC(=O)[C@@H](C)C(=O)[C@@H](C(C)C)OC(=O)C[C@@H]1O [Epididemnin A (15), Epididemnin A] (H-[dNMeL]T[X4]LP[NMeY](Me); ester 2-C)",VIV Protection,Visna virus (VIV),< 0
same,Inhibition of [3H]didemnin B binding (%),[1]; 0.001 μg/mL,0%
same,Inhibition of [3H]didemnin B binding (%),[1]; 0.01 μg/mL,3%
same,Inhibition of [3H]didemnin B binding (%),[1]; 0.1 μg/mL,9%
same,Inhibition of [3H]didemnin B binding (%),[1]; 1 μg/mL,12%
same,IC50 DNA,[2],inactive (1 g)
same,CV-1,CV-1 monkey kidney cells,0
same,Cytotoxicity L1210 IC50,[4],300 ng/mL
"CC[C@H](C)[C@H]1NC(=O)[C@@H](NC(=O)[C@@H](CC(C)C)N(C)C(=O)[C@H]2CCCN2C(=O)C(C)=O)[C@@H](C)OC(=O)[C@H](Cc2ccc(OC)cc2)N(C)C(=O)[C@@H]2CCCN2C(=O)[C@H](CC(C)C)NC(=O)[C@@H](C)C(=O)[C@H](C(C)C)OC(=O)C[C@@H]1O [Pyruv-D-Pro-DA, Pyruv-D-Pro Didemnin A] (Pyruvoyl-[dP][dNMeL]T[X1]LP[NMeY](Me); ester 3-C)",VSV,VSV,+ ++
same,IC50,L1210 cells,6 ng/mL
same,cytotoxicity compared with DDB,L1210 cells,only partially active
"CC[C@H](C)[C@H]1NC(=O)[C@@H](NC(=O)[C@@H](CC(C)C)NC)[C@@H](C)OC(=O)[C@H](Cc2ccc(OC)cc2)N(C)C(=O)[C@@H]2CCCN2C(=O)[C@H](CC(C)C)NC(=O)[C@@H](C)[C@H](O)[C@H](C(C)C)OC(=O)C[C@@H]1O [[Dihydro(2S,3S,4S)Hip^2]didemnin A, reference compound] (H-[dNMeL]T[X14]LP[NMeY](Me); ester 2-C)",cytotoxicity compared with Compound 1,[5],weaker cytotoxicity than Compound 1
CC[C@H](C)[C@H]1NC(=O)[C@@H](NC(=O)[C@@H](CC(C)C)N(C)C(=O)[C@@H]2CCCN2C(=O)C(C)C)[C@@H](C)OC(=O)[C@H](Cc2ccc(OC)cc2)N(C)C(=O)[C@@H]2CCCN2C(=O)[C@H](CC(C)C)NC(=O)[C@@H](C)C(=O)[C@H](C(C)C)OC(=O)C[C@@H]1O [[Isobutyryl^9]didemnin B] (Isobutyryl-P[dNMeL]T[X1]LP[NMeY](Me); ester 3-C),HSV-1,HSV-1,++ +
same,VIV Protection,Visna virus (VIV),-93
same,Inhibition of [3H]didemnin B binding (%),[1]; 0.001 μg/mL,2%
same,Inhibition of [3H]didemnin B binding (%),[1]; 0.01 μg/mL,4%
same,Inhibition of [3H]didemnin B binding (%),[1]; 0.1 μg/mL,59%
same,Inhibition of [3H]didemnin B binding (%),[1]; 1 μg/mL,75%
same,BHK,[7],"0, PT"
same,Cytotoxicity L1210 IC50,[4],0.2 ng/mL
"CC[C@H](C)[C@H]1NC(=O)[C@@H](NC(=O)[C@@H](CC(C)C)N(C)C(=O)[C@@H]2CCCN2C(=O)C(C)=O)[C@@H](C)OC(=O)[C@H](Cc2ccc(OC)cc2)N(C)C(=O)[C@@H]2CCCN2C(=O)[C@H](CC(C)C)NC(=O)[C@@H](C)C(=O)[C@H](C(C)C)OC(=O)C[C@@H]1O [[Pyruvyl^9]Didemnin B (106), Dehydrodidemnin B] (Pyruvoyl-P[dNMeL]T[X1]LP[NMeY](Me); ester 3-C)",antiviral activity against VSV,VSV,high order
same,HSV-1,HSV-1,+ +
same,antiviral activity against HSV-1,HSV-1,several times more active than DB; also recorded: high order
same,VIV Protection,Visna virus (VIV),-92
same,activity against VIV,Visna virus (VIV),completely inactive
same,Alive (day 23),"P388 murine lymphoma; P388, 80 μg/kg/day",0
same,Median Survival,"P388 murine lymphoma; P388, 80 μg/kg/day",19.5 days
same,Body wt. chenge.,"P388 murine lymphoma; P388, 80 μg/kg/day i. p. days 1-9",-1.4 g
same,T/C (treated/control),"P388 murine lymphoma; P388, 80 μg/kg/day",195%
same,Alive (day 23),"P388 murine lymphoma; P388, 160 μg/kg/day",0
same,Median Survival,"P388 murine lymphoma; P388, 160 μg/kg/day",21.0 days
same,Body wt. chenge.,"P388 murine lymphoma; P388, 160 μg/kg/day i. p. days 1-9",-3.2 g
same,T/C (treated/control),"P388 murine lymphoma; P388, 160 μg/kg/day",210%
same,Alive (day 23),"P388 murine lymphoma; P388, 320 μg/kg/day",0
same,Median Survival,"P388 murine lymphoma; P388, 320 μg/kg/day",6.0 days
same,Body wt. chenge.,"P388 murine lymphoma; P388, 320 μg/kg/day i. p. days 1-9",-3.3 g
same,T/C (treated/control),"P388 murine lymphoma; P388, 320 μg/kg/day",60%
same,Alive (day 24),"B16 melanoma; B16, 40 μg/kg/day",0
same,Median Survival,"B16 melanoma; B16, 40 μg/kg/day",30 days
same,Body wt. chenge.,"B16 melanoma; B16, 40 μg/kg/day i. p. days 1-9",0.1 g
same,T/C (treated/control),"B16 melanoma; B16, 40 μg/kg/day",178%
same,Alive (day 24),"B16 melanoma; B16, 80 μg/kg/day",0
same,Median Survival,"B16 melanoma; B16, 80 μg/kg/day",32 days
same,Body wt. chenge.,"B16 melanoma; B16, 80 μg/kg/day i. p. days 1-9",-0.5 g
same,T/C (treated/control),"B16 melanoma; B16, 80 μg/kg/day",188%
same,Alive (day 24),"B16 melanoma; B16, 160 μg/kg/day",0
same,Median Survival,"B16 melanoma; B16, 160 μg/kg/day",37 days
same,Body wt. chenge.,"B16 melanoma; B16, 160 μg/kg/day i. p. days 1-9",-1.3 g
same,T/C (treated/control),"B16 melanoma; B16, 160 μg/kg/day",218%
same,Median Tumor Vol.,Lewis lung carcinoma; 40 μg/kg/day,473 mm^3
same,"N. P. (Day 14), number of nonpalpable tumors",Lewis lung carcinoma; 40 μg/kg/day,0
same,Body Wt. Chenge.,Lewis lung carcinoma; 40 μg/kg/day i. p. days 1-9,-2.6 g
same,Median Tumor Vol.,Lewis lung carcinoma; 80 μg/kg/day,163 mm^3
same,"N. P. (Day 14), number of nonpalpable tumors",Lewis lung carcinoma; 80 μg/kg/day,2
same,Median Tumor Vol.,Lewis lung carcinoma; 160 μg/kg/day,0 mm^3
same,"N. P. (Day 14), number of nonpalpable tumors",Lewis lung carcinoma; 160 μg/kg/day,5
same,Body Wt. Chenge.,Lewis lung carcinoma; 160 μg/kg/day i. p. days 1-9,-3.7 g
same,IC50,L1210 cells,0.2 ng/mL
same,cytotoxic activity against L1210,L1210 cells,several times more active than DB
same,Cytotoxicity L1210 IC50,[4],0.2 ng/mL
